Assay in all cases: NCI anticancer screen, dose series, 48 h
Assay [1] concerns OVCAR-8 ovarian.
For assay [2], the system named is MDA-MB-435.
Assay [3] concerns HOP-62 NSCLC.
The subject of assay [4] is T-47D breast.
The test system of assay [5] is HT29 colon.
Assay [6] concerns ACHN renal.
Assay [7] relates to PC-3 prostate.
The subject of assay [8] is RPMI-8226 leukemia.
The subject of assay [9] is KM12 colon.
The test system of assay [10] is U251 CNS.

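Test compounds were applied to cells in 96-well plates for 48 hours at 5 doses. Definition used: TGI = concentration required for complete inhibition of growth.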 Bounds are passed on as bounds.

Consider `CCc1nc2ccc(NCCN(C)C)c3c(=O)c4ccccc4n1c23`, for which the TGI was found to be 4.76 µM in [1]; 2.4 µM in assay [2]; 5.12 µM in assay [3]; 20.8 µM in assay [4]; 5.08 µM in [5]; 6.03 µM in assay [6]. Moreover, the TGI in assay [7] is 6.44 µM; in assay [8], 7.78 µM; in [9], 6.42 µM; in assay [10], 12.1 µM.

For the molecule `C/C1=C\C=C(\C(C)C)CC/C(C(=O)O)=C\CC/C(C)=C/CC1`, the TGI in [1] is over 100 µM; in [2], 56.4 µM; in [3], 48 µM; in assay [4], over 100 µM; in assay [5] it was 99 µM; in [6], over 100 µM. The TGI came out at 35.2 µM in assay [7], 42.2 µM in assay [8], 41.8 µM in [9] and 30.5 µM in assay [10].

Take `O=C1c2cn[nH]c2C(c2ccccc2)N1c1ccccc1` (stereo not given): the TGI in assay [1], in assay [2], in [3], in assay [4], in assay [5] and in assay [6] was over 10 µM each time. Besides, the TGI in assay [7], in assay [8], in [9] and in assay [10] was over 10 µM in each case.

As for `CC(=O)N(O)c1ccc(-c2nc3ccccc3s2)cc1`, the TGI in [1], in assay [2], in assay [3], in assay [4], in assay [5] and in assay [6] was over 100 µM in each case. Besides, the TGI in assay [7], in assay [8], in assay [9] and in [10] was over 100 µM each time.

On to `COc1cc(C2c3cc4c(cc3OC(N3CCNCC3)C2C)OCO4)cc(OC)c1OC` (stereo not given), for which the TGI was over 37.8 µM in [1]; 1.1 µM in assay [2]; 27.3 µM in assay [3]; over 100 µM in [4]; 7.54 µM in [5]; 48.7 µM in assay [6]. Besides, the TGI in assay [7] was over 34.4 µM; in [8], 17.3 µM; in [9], 9.87 µM; in assay [10] it was over 43.8 µM.

On to `O=c1cnn(CCOCP(=O)(O)O)c(=O)[nH]1`, for which the TGI in assay [1], in [2], in [3], in assay [4], in assay [5] and in assay [6] was over 100 µM throughout. Further, the TGI in [7], in [8], in [9] and in [10] was over 100 µM throughout.

In the case of `COc1ccccc1C[C@@H]1OC2(C=CC(=O)C=C2)O[C@H]1Cc1ccccc1OC`, the TGI was 3.46 µM in [1]; 38.2 µM in assay [2]; 15.4 µM in assay [3]; over 50 µM in [4]; 16.7 µM in assay [5]; 17.7 µM in [6]. For the same molecule, the TGI in assay [7] stood at 20.6 µM; in assay [8] it was 6.24 µM; in assay [9] it was 18.8 µM; in [10], 19.4 µM.

Consider `Cc1ccc2c(c1)C(=O)C(C1OC(=O)c3ccccc31)C2` (stereo not given), for which the TGI in assay [1], in assay [2], in assay [3], in [4], in [5] and in assay [6] was over 100 µM throughout. Also, the TGI in assay [7], in assay [8], in [9] and in assay [10] was over 100 µM throughout.

Consider `COc1cc(C2c3cc4c(cc3OC(NCCO)C2C)OCO4)cc(OC)c1OC` (stereo not given), for which the TGI in assay [1] is over 100 µM; in [2], 0.463 µM; in [3], 9.03 µM; in assay [4], over 100 µM; in [5], 21.4 µM; in [6] it was over 91.5 µM. Also, the TGI in assay [7] is over 100 µM; in [8] it was over 34 µM; in assay [9], over 70.2 µM; in [10] it was 12.5 µM.

In the case of `C[Si](C)(c1ccccc1)[C@H]1CCCC=C1CCNC1c2ccccc2CCc2ccccc21`, the TGI in assay [1], in assay [2], in assay [3], in [4], in assay [5] and in assay [6] was over 100 µM throughout. Besides, the TGI in assay [7], in assay [8], in [9] and in assay [10] was over 100 µM throughout.

`O=C(CCc1ccccc1)On1c(-c2ccccc2)nc2ccccc2c1=S`: the TGI in assay [1] is 64.6 µM; in assay [2] it was over 100 µM; in assay [3] it was 31.5 µM; in assay [4], over 100 µM; in assay [5] it was over 100 µM; in assay [6] it was over 100 µM. Moreover, the TGI was 56.3 µM in assay [7], over 100 µM in [8], 24 µM in [9] and over 100 µM in [10].

For the molecule `CCc1ccccc1NNc1cc(=O)[nH]c(=O)[nH]1`, the TGI in [1] was 51.6 µM; in assay [2], 34.1 µM; in [3], 35.1 µM; in assay [4], 37.7 µM; in assay [5], 39.3 µM; in [6] it was 32.7 µM. The TGI in [7] was 32.8 µM; in [8] it was over 100 µM; in assay [9], 36 µM; in assay [10] it was 31.2 µM.

In the case of `COc1cc2nc(-c3cccs3)[nH]c(=O)c2cc1OC`, the TGI in assay [1], in [2], in [3], in [4], in assay [5] and in assay [6] was over 100 µM throughout. Also, the TGI in assay [7], in assay [8], in assay [9] and in [10] was over 100 µM in each case.

As for `O=C1Nc2ccccc2/C1=c1\[nH]c(=O)/c(=C\c2ccc(OCc3ccccc3)cn2)[nH]c1=O`, the TGI was over 100 µM in assay [1]; over 100 µM in [2]; 65.7 µM in assay [3]; over 100 µM in assay [4]; over 100 µM in [5]; over 100 µM in [6]. For the same molecule, the TGI was over 100 µM in [7], over 100 µM in assay [8], over 100 µM in assay [9] and 44.8 µM in [10].

On to `COc1ccc(-n2sc3ncccc3c2=O)cc1`, for which the TGI is 70.3 µM in assay [1]; 66.7 µM in [2]; 56.7 µM in assay [3]; 44.1 µM in [4]; 43 µM in [5]; 34.5 µM in [6]. Further, the TGI in [7] was 53.5 µM; in assay [8], over 100 µM; in assay [9], 34.5 µM; in assay [10] it was 44.6 µM.

As for `Clc1ccc(OCc2nn3c(CCc4nnc5sc(COc6ccc(Cl)cc6)nn45)nnc3s2)cc1`, the TGI in assay [1] is 35.8 µM; in [2], over 100 µM; in [3] it was over 100 µM; in assay [4], over 100 µM; in assay [5] it was over 100 µM; in [6] it was 41 µM. The TGI in assay [7] was 53.1 µM; in assay [8] it was over 100 µM; in [9], 60.2 µM; in assay [10], 54.6 µM.

Turning to `CC(C)(C)N(Cc1ccc2c(c1)OCO2)C(=O)/C=C\Sc1ccccc1`, the TGI in assay [1], in assay [2], in assay [3], in assay [4], in assay [5] and in [6] was over 100 µM each time. The TGI in [7], in [8], in [9] and in assay [10] was over 100 µM in each case.

Take `CNc1ncc(-c2nnnn2-c2ccccc2)c(CN(C)C)n1`: the TGI in [1], in [2], in [3], in assay [4], in assay [5] and in assay [6] was over 100 µM in each case. For the same molecule, the TGI in assay [7], in [8], in assay [9] and in assay [10] was over 100 µM in each case.

As to `CCOC(=O)C1=C(C)N(c2ccc(OC)cc2)C2(O)C=CC(=O)C3=C(O)c4ccccc4C(=O)C312` (stereo not given), the TGI in assay [1] is 81.1 µM; in assay [2] it was 18.7 µM; in [3] it was 30.1 µM; in [4], 32.7 µM; in assay [5] it was 32.7 µM; in assay [6], 39.3 µM. For the same molecule, the TGI in [7] was determined as 24.4 µM; in assay [8] it was 10.9 µM; in assay [9] it was 29.2 µM; in [10], 23.5 µM.

`C[N+]1(CCN[N+]2(C)CCCCC2)CCc2ccccc2C1` (stereo not given): the TGI in [1], in [2], in assay [3], in assay [4], in assay [5] and in [6] was over 100 µM throughout. Besides, the TGI in assay [7], in [8], in assay [9] and in assay [10] was over 100 µM in each case.
